Literature values in patent US7087769B1, “Process for the preparation of cationic surfactants” (Laboratorios Miret, S.A., priority 2000, dated 2006).
Where two headings read alike, the source gives them in different places.

Legend:
[1] = system: Candida albicans; conditions: EP-A-0 749 960
[2] = system: Staphylococcus aureus; conditions: EP-A-0 749 960
[3] = system: Gliocadium virens
[4] = system: Escherichia coli; conditions: EP-A-0 749 960
[5] = animals
[6] = system: Citrobacter freundii
[7] = system: Arthrobacter oxydans
[8] = system: Bordetella bronchiseptica
[9] = system: Penicillium chrysogenum
[10] = human beings
[11] = system: Pseudomonas aeruginosa; conditions: EP-A-0 749 960
[12] = system: Bacillus subtilus
[13] = system: Mucor rouxii
[14] = system: Bacillus cereus spp. mycoide
[15] = system: Listeria monocytogenes
[16] = system: Serratia marcescens
[17] = system: Chaetonium globosum
[18] = system: Proteus mirabilis
[19] = system: Salmonelly thyphimurium
[20] = system: Aureobasidium pullulans
[21] = system: Mycobacterium phlei
[22] = system: Zygosaccharomyces rouxii
[23] = system: Enterobacter aerogenes
[24] = system: Aspergillus niger; conditions: EP-A-0 749 960
[25] = system: Saccharomyces cerevisiae
[26] = system: Alcaligenes faecalis
[27] = system: Micrococcus luteus
[28] = system: Klebsiella pneumoniae spp. pneumoniae
[29] = system: Penicillium funiculosum
[30] = system: Rhodotorula rubra

For `CCCCCCCCCCCC(=O)N[C@@H](CCCNC(=N)N)C(=O)OCC.Cl` [ethyl ester of N^α-lauroyl-L-arginine monohydrochloride], the efficacy against microorganism [1] is listed as “proven”, the efficacy against microorganism [2] is listed as “proven” and the efficacy against fungi [3] is listed as “efficaceous”. The efficacy against microorganism [4] was “proven”, the tolerability [5] was “well tolerated” and the efficacy against bacteria [6] was “efficaceous”. The efficacy against bacteria [7] was “efficaceous”, the efficacy against bacteria [8] was “efficaceous” and the efficacy against fungi [9] was “efficaceous”. For the same molecule, the tolerability [10] was “well tolerated”, the efficacy against microorganism [11] was “proven” and the efficacy against bacteria [12] was “efficaceous”. For the same molecule, the efficacy against fungi [13] was “efficaceous”, the efficacy against bacteria [14] was “efficaceous” and the efficacy against bacteria [15] was “efficaceous”. The efficacy against bacteria [16] was “efficaceous”, the efficacy against fungi [17] was “efficaceous” and the efficacy against bacteria [18] was “efficaceous”. For the same molecule, the efficacy against bacteria [19] was “efficaceous”, the efficacy against fungi [20] was “efficaceous” and the efficacy against bacteria [21] was “efficaceous”. The efficacy against yeasts [22] was “efficaceous”, the efficacy against bacteria [23] was “efficaceous” and the efficacy against microorganism [24] was “proven”. For the same molecule, the efficacy against yeasts [25] was “efficaceous”, the efficacy against bacteria [26] was “efficaceous” and the efficacy against bacteria [27] was “efficaceous”. For the same molecule, the efficacy against bacteria [28] was “efficaceous”, the efficacy against fungi [29] was “efficaceous” and the efficacy against yeasts [30] was “efficaceous”.
